From patent US20260272954A1, “ANALGESIC COMPOUNDS COMPRISING CHARGED PARTICLES AND METHOD OF MANUFACTURE THEREOF” (UNIVERSITY OF CONNECTICUT, priority 2023, published 2026) come the findings set out here.

The series can be described thus: Release of QX-314 into water through dialysis membrane (HPLC). In kind it is physicochemical. The conditions noted are these: dialysis membrane in 20 ml ultrapure water; FIG. 6. The procedure: High Performance Liquid Chromatography (HPLC) was used to assess the amount of QX-314 remaining in the supernatant after complexing with the NPs. The conditions for HPLC were as follows. The mobile phase consisted of 50 mM phosphate buffer, with 0.16% triethylamine, pH 4.0 buffer:methanol:acetonitrile=60:30:10 vol/vol/vol. The chromatographic conditions were: 30 μL of solution injected, 40° C. constant temperature, flow rate of 0.3 ml/min, and wavelength detection of 210 nm. The column used was a Supelco C18 Column 25 cm×4.6 mm.
The DPPC:PA (mass ratio=1:1) nanoparticles were complexed with QX-314 by incubating 0.5 mg of QX-314 with 1 mL of 0.25% (w/v) lipid solution in a 37° C. room on a gentle shaker. After 1 hour, the formulation was transferred to a dialysis membrane and incubated in 20 ml of ultrapure water. The amount of QX-314 released into the water was measured as a function of time using HPLC as described above. Aqueous solution of QX-314 in dialysis membrane was used as the control. A representative image of positively charged molecule (QX-314) complexed with negatively charged lipid (L-α-phosphatidic acid) is shown below.

Consider `CC[N+](CC)(CC)CC(=O)Nc1c(C)cccc1C` [QX-314 solution, QX-314], for which the “burst release of QX-314 (time)” value was no more than 3 h.
